Assay results published in US11071721B2, “Bicyclic amide compounds and methods of use thereof” (Genentech, Inc., priority 2016, dated 2021).

Biological target: human RIP1 kinase domain (2-375) (Homo sapiens (Human), UniProt Q13546)
Test: RIP1 kinase inhibition assay (Transcreener ADP biochemical enzyme assay)
Conditions: Ki app (Morrison tight-binding fit); 50 nM enzyme, 50 uM ATP, 2 hours incubation, fluorescence polarization
Protocol: RIP1 Kinase Inhibition Assays (Biochemical Assay):
The compounds of the present invention were tested for their capacity to inhibit RIP K activity as described below.
Enzyme assay: The ability of the receptor interacting protein kinase (RIPK1) to catalyze the hydrolysis of adenosine-5′-triphosphate (ATP) is monitored using the Transcreener ADP (adenosine-5′-diphosphate) assay (BellBrook Labs). Purified human RIP1 kinase domain (2-375) (50 nM) derived from a baculovirus-infected insect cell expression system is incubated with test compounds for 2 hours in 50 mM Hepes buffer (pH 7.5) containing 30 mM MgCl2, 1 mM dithiothreitol, 50 uM ATP, 0.002% Brij-35, and 0.5% dimethyl sulfoxide (DMSO). Reactions are quenched by the addition of 1× Bell Brooks Stop buffer B (20 mM Hepes (ph7.5), 40 mM ethylenediaminetetraacetic acid and 0.02% Brij-35) containing an additional 12 mM EDTA and 55 ug/mL ADP2 antibody and 4 nM ADP-AlexaFluor® 633 tracer. The tracer bound to the antibody is displaced by the ADP generated during the RIP1K reaction, which causes a decrease in fluorescence polarization that is measured by laser excitation at 633 nm with a FP microplate reader M1000. Fractional activity was plotted against test article concentration. Using Genedata Screener software (Genedata; Basel, Switzerland), the data were fit to the tight-binding apparent inhibition constant (Ki^app) Morrison equation [Williams, J. W. and Morrison, J. F. (1979) The kinetics of reversible tight-binding inhibition. Methods Enzymol 63: 437-67]. The following equation was used to calculate fractional activity and Ki^app:
[formula] where [E]T and [I]T are the total concentrations of active enzyme and test article, respectively.

Sequence of human RIP1 kinase domain (2-375) (Q13546 2-375): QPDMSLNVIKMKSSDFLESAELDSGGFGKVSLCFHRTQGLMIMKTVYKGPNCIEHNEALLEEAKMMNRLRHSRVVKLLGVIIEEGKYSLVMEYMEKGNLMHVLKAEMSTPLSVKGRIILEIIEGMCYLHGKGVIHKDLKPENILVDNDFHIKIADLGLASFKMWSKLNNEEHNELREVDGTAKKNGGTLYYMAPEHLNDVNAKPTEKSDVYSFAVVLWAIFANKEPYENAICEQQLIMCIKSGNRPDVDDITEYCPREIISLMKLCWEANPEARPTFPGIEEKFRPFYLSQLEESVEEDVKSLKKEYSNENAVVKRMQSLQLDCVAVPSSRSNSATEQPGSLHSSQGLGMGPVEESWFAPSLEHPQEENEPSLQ

Which Ki does the source give for `C[C@@H]1C[C@H](F)CN1C(=O)c1nc2n(n1)[C@H](c1ccccc1)C[C@@H]2F` (racemic) [Example 70, [rac-(2R,4S)-4-fluoro-2-methyl-pyrrolidin-1-yl]-[rac-(5S,7S)-7-fluoro-5-phenyl-6,7-dihydro-5H-pyrrolo[1,2-b] [1,2,4]triazol-2-yl]methanone] here?
The Ki was 150 nM.

How did the Ki turn out when `O=C(c1nc2n(n1)[C@H](c1ccccc1)C[C@@H]2F)N1CCC[C@@H]1CO` (racemic) [Example 71, [rac-(5S,7S)-7-fluoro-5-phenyl-6,7-dihydro-5H-pyrrolo[1,2-b][1,2,4]triazol-2-yl]-[rac-(2R)-2-(hydroxymethyl)pyrrolidin-1-yl]methanone] was run?
The Ki was 690 nM.

`O=C(c1nc2n(n1)[C@H](c1ccccc1)C[C@@H]2F)N1CC(F)(F)CC1CO` (mixture of isomers) [Example 72, [4,4-difluoro-2-(hydroxymethyl)pyrrolodin-1-yl]-[rac-(5S,7S)-7-fluoro-5-phenyl-6,7-dihydro-5H-pyrrolo[1,2-b] [1,2,4]triazol-2-yl]methanone] was tested. Which Ki did it give?
Its Ki is 3900 nM.

Which Ki does the source give for `O=C(c1nc2n(n1)[C@H](c1ccccc1)C[C@@H]2F)N1CC(F)(F)C[C@H]1CF` (racemic) [Example 73, [rac-(2S)-4,4-difluoro-2-(fluoromethyl)pyrrolidin-1-yl]-[rac-(5S,7S)-7-fluoro-5-phenyl-6,7-dihydro-5H-pyrrolo[1,2-b] [1,2,4]triazol-2-yl]methanone] here?
Its Ki is 82 nM.

For `O=C(c1nc2n(n1)[C@H](c1ccccc1)C[C@@H]2F)N1CCc2cnccc2C1` (racemic) [Example 75, 3.4-dihydro-1H-2,6-naphthyridin-2-yl-[rac-(5S,7S)-7-fluoro-5-phenyl-6,7-dihydro-5H-pyrrolo[1,2-b][1,2,4]triazol-2-yl]methanone], which Ki is on record?
The Ki was 290 nM.

`O=C(c1nc2n(n1)[C@H](c1ccccc1)C[C@@H]2F)N1CCC(Oc2ccccc2)C1` (mixture of isomers) [Example 77, (3-phenoxypyrrolidin-1-yl)-[rac-(5S,7S)-7-fluoro-5-phenyl-6,7-dihydro-5H-pyrrolo[1,2-b][1,2,4]triazol-2-yl]methanone] was tested. Which Ki did it give?
Its Ki is 61 nM.

Which Ki does the source give for `O=C(c1nc2n(n1)[C@H](c1ccccc1)C[C@@H]2F)N1CCCC1C(F)F` (mixture of isomers) [Example 78, [2-(difluoromethyl)pyrrolidin-1-yl]-[rac-(5S, 7S)-7-fluoro-5-phenyl-6,7-dihydro-5H-pyrrolo[1,2-b][1,2,4]triazol-2-yl]methanone] here?
The Ki was 60 nM.

With `O=C(c1nc2n(n1)[C@H](c1ccccc1)C[C@@H]2F)N1CCCC(F)(F)C1` (racemic) [Example 79, (3,3-difluoro-1-piperidyl)-[rac-(5S,7S)-7-fluoro-5-phenyl-6,7-dihydro-5H-pyrrolo[1,2-b][1,2,4]triazol-2-yl] methanone] as the compound, how does the Ki read?
Its Ki is 790 nM.

How did the Ki turn out when `O=C(c1nc2n(n1)[C@H](c1ccccc1)C[C@@H]2F)N1CCCn2nccc21` (racemic) [Example 80, 6,7-dihydro-5H-pyrazolo[1,5-a]pyrimidin-4-yl-[rac-(5S,7S)-7-fluoro-5-phenyl-6,7-dihydro-5H-pyrrolo[1,2-b][1,2,4]triazol-2-yl]methanone] was run?
Its Ki is 100 nM.

`O=C(c1nc2n(n1)[C@H](c1ccccc1)C[C@@H]2F)N1CCC(C(F)(F)F)n2nccc21` (mixture of isomers) [Example 81, [rac-(5S,7S)-7-fluoro-5-phenyl-6,7-dihydro-5H-pyrrolo[1,2-b][1,2,4]triazol-2-yl]-[7-(trifluoromethyl)-6,7-dihydro-5H-pyrazolo [1,5-a]pyrimidin-4-yl]methanone] was tested. Which Ki did it give?
Its Ki is 250 nM.

How did the Ki turn out when `O=C(c1nc2n(n1)[C@H](c1ccccc1)C[C@@H]2F)N1CCC[C@H]1C(F)(F)F` (racemic) [Example 82, [rac-(5S,7S)-7-fluoro-5-phenyl-6,7-dihydro-5H-pyrrolo[1,2-b][1,2,4]triazol-2-yl]-[rac-(2S)-2-(trifluoromethyl)pyrrolidin-1-yl]methanone] was run?
The Ki was 450 nM.

For `O=C(c1nc2n(n1)[C@H](c1ccccc1)C[C@@H]2F)N1CCC[C@@H]1C(F)(F)F` (racemic) [Example 83, [rac-(5S,7S)-7-fluoro-5-phenyl-6,7-dihydro-5H-pyrrolo[1,2-b][1,2,4]triazol-2-yl]-[rac-(2R)-2-(trifluoromethyl)pyrrolidin-1-yl]methanone], which Ki is on record?
Its Ki is 350 nM.

How did the Ki turn out when `O=C(c1nc2n(n1)[C@H](c1ccccc1)C[C@@H]2F)N1CCCC1C(F)(F)F` (mixture of isomers) [Example 84, [rac-(5S,7S)-7-fluoro-5-phenyl-6,7-dihydro-5H-pyrrolo[1,2-b][1,2,4]triazol-2-yl]-[2-(trifluoromethyl)pyrrolidin-1-yl]methanone] was run?
The Ki was 300 nM.

Which Ki does the source give for `C[C@H]1[C@H](C(F)(F)F)CCN1C(=O)c1nc2n(n1)[C@H](c1ccccc1)C[C@@H]2F` (racemic) [Example 85, [rac-(5S,7S)-7-fluoro-5-phenyl-6,7-dihydro-5H-pyrrolo[1,2-b][1,2,4]triazol-2-yl]-[rac-(2S,3R)-2-methyl-3-(trifluoromethyl)pyrrolidin-1-yl]methanone] here?
The Ki was 330 nM.

With `O=C(c1nc2n(n1)[C@H](c1ccccc1)C[C@@H]2F)N1CC2CC1CC2(F)F` (mixture of isomers) [Example 87, (5,5-difluoro-2-azabicyclo[2.2.1]heptan-2-yl)-[rac-(5S,7S)-7-fluoro-5-phenyl-6,7-dihydro-5H-pyrrolo[1,2-b][1,2,4]triazol-2-yl]methanone] as the compound, how does the Ki read?
The Ki was 150 nM.

For `O=C(c1nc2n(n1)[C@H](c1ccccc1)C[C@@H]2F)N1CCc2ccncc2C1` (racemic) [Example 88, 3,4-dihydro-1H-2,7-naphthyridin-2-yl-[rac-(5S,7S)-7-fluoro-5-phenyl-6,7-dihydro-5H-pyrrolo[1,2-b][1,2,4]triazol-2-yl]methanone], which Ki is on record?
Its Ki is 54 nM.

`O=C(c1nc2n(n1)[C@H](c1ccccc1)C[C@@H]2F)N1CCc2ncccc2C1` (racemic) [Example 89, 7,8-dihydro-5H-1,6-naphthyridin-6-yl-[rac-(5S,7S)-7-fluoro-5-phenyl-6,7-dihydro-5H-pyrrolo[1,2-b][1,2,4]triazol-2-yl]methanone] was tested. Which Ki did it give?
The Ki was 130 nM.

`CN(C(=O)c1nc2n(n1)[C@H](c1ccccc1)C[C@@H]2F)c1ccccc1` (racemic) [Example 90, rac-(5S,7S)-7-fluoro-N-methyl-N,5-diphenyl-6,7-dihydro-5H-pyrrolo[1,2-b][1,2,4]triazole-2-carboxamide] was tested. Which Ki did it give?
Its Ki is 620 nM.

How did the Ki turn out when `CN(CC(F)F)C(=O)c1nc2n(n1)[C@H](c1ccccc1)C[C@@H]2F` (racemic) [Example 91, rac-(5S,7S)-N-(2,2-difluoroethyl)-7-fluoro-N-methyl-5-phenyl-6,7-dihydro-5H-pyrrolo[1,2-b] [1,2,4]triazole-2-carboxamide] was run?
Its Ki is 42 nM.

Which Ki does the source give for `CN(CC(F)(F)F)C(=O)c1nc2n(n1)[C@H](c1ccccc1)C[C@@H]2F` (racemic) [Example 92, rac-(5S,7S)-7-fluoro-N-methyl-5-phenyl-N-(2,2,2-trifluoroethyl)-6,7-dihydro-5H-pyrrolo [1,2-b][1,2,4]triazole-2-carboxamide] here?
The Ki was 100 nM.

For `O=C(c1nc2n(n1)[C@H](c1ccccc1)C[C@@H]2F)N1CCC(Cc2ccccc2)C1` (mixture of isomers) [Example 93, (3-benzylpyrrolidin-1-yl)-[rac-(5S,7S)-7-fIuoro-5-phenyl-6,7-dihydro-5H-pyrrolo[1,2-b][1,2,4]triazol-2-yl]methanone], which Ki is on record?
The Ki was 30 nM.

Which Ki does the source give for `O=C(c1nc2n(n1)[C@H](c1ccccc1)C[C@@H]2F)N1CCCc2ccccc2C1` (racemic) [Example 94, [rac-(5S,7S)-7-fluoro-5-phenyl-6,7-dihydro-5H-pyrrolo[1,2-b][1,2,4]triazol-2-yl]-(1,3,4,5-tetrahydro-2-benzazepin-2-yl)methanone] here?
The Ki was 160 nM.

With `O=C(c1nc2n(n1)[C@H](c1ccccc1)C[C@@H]2F)N1CCc2cccc(F)c2C1` (racemic) [Example 95, (8-fluoro-3,4-dihydro-1H-isoquinolin-2-yl)-[rac-(5S,7S)-7-fluoro-5-phenyl-6,7-dihydro-5H-pyrrolo[1,2-b][1,2,4]triazol-2-yl]methanone] as the compound, how does the Ki read?
The Ki was 18 nM.

For `CC1c2c(F)cccc2CCN1C(=O)c1nc2n(n1)[C@H](c1ccccc1)C[C@@H]2F` (mixture of isomers) [Example 96, (8-fluoro-1-methyl-3,4-dihydro-1H-isoquinolin-2-yl)-[rac-(5S,7S)-7-fluoro-5-phenyl-6,7-dihydro-5H-pyrrolo[1,2-b][1,2,4]triazol-2-yl]methanone], which Ki is on record?
Its Ki is 57 nM.

With `CC1c2ccccc2CCN1C(=O)c1nc2n(n1)[C@H](c1ccccc1)C[C@@H]2F` (mixture of isomers) [Example 97, (1-methyl-3,4-dihydro-1H-isoquinolin-2-yl)-[rac-(5S,7S)-7-fluoro-5-phenyl-6,7-dihydro-5H-pyrrolo[1,2-b][1,2,4]triazol-2-yl]methanone] as the compound, how does the Ki read?
The Ki was 58 nM.

How did the Ki turn out when `O=C(c1nc2n(n1)[C@@H](c1ccccc1)C[C@H]2F)N1CC2C(C1)C2(F)F` (mixture of isomers) [Example 100, (6,6-difluoro-3-azabicyclo[3.1.0]hexan-3-yl)-[rac-(5R,7R)-7-fluoro-5-phenyl-6,7-dihydro-5H-pyrrolo[1,2-b][1,2,4]triazol-2-yl]methanone] was run?
Its Ki is 270 nM.
